Earlier results on one compound are cited in PMC12642135 (Food and Waterborne Parasitology, 2025).

“Also recorded” adds a separate entry of the source.

The subject of this series is Toxoplasma gondii. Further details: method as in Kul et al., 2013. The following applies: lambs, applied from the second week pi (day 14 pi) onwards; ref Kul et al., 2013.

Regarding `Cc1cc(-n2c(=O)[nH]c(=O)n(C)c2=O)ccc1Oc1ccc(SC(F)(F)F)cc1` [toltrazuril], the “Reduction of tissue cysts” value is reported as “mildly reduced; also recorded: partial reduction”.
